# Test results: ChEMBL document CHEMBL1121434, “4-[(Aminoalkyl)amino]-1,2-dimethoxynaphthalenes as antimalarial agents” (J Med Chem, 1980)
# Calls of active or inactive are those of the source. The rule behind the calls is not given here.
# Tests used:
# Monkey [1] = test: Tested for radical curative activity in monkeys infected with Plasmodium cynomolgi at 1.0 (mg/kg)/day dose; I = inactive; assay type: functional, organism-based; conditions: Cercopithecidae
# Monkey [2] = test: Tested for radical curative activity in monkeys infected with Plasmodium cynomolgi at 10.0 (mg/kg)/day dose; C = curative; assay type: functional, organism-based; conditions: Cercopithecidae
# Monkey [3] = test: Tested for radical curative activity in monkeys infected with Plasmodium cynomolgi I = inactive; assay type: functional, organism-based; conditions: Cercopithecidae
# Monkey [4] = test: Tested for radical curative activity in monkeys infected with Plasmodium cynomolgi at 10 (mg/kg)/day dose; T = toxic; assay type: organism-based; conditions: cercopithecidae, in vivo
# Monkey [5] = test: Tested for radical curative activity in monkeys infected with Plasmodium cynomolgi at 0.316 (mg/kg)/day dose; I = inactive; assay type: functional, organism-based; conditions: Cercopithecidae
# Monkey [6] = test: Tested for radical curative activity in monkeys infected with Plasmodium cynomolgi at 1 (mg/kg)/day dose; I = inactive; assay type: functional, organism-based; conditions: Cercopithecidae
smiles,measurement,setting,value
COc1cc(NC(C)CCCN)c2ccccc2c1OC (stereo not drawn),Activity,Monkey [1],inactive
COc1cc(NCCCC(C)N)c2cc(Br)ccc2c1OC (stereo not drawn),Activity,Monkey [2],Curative
same,Activity,Monkey [1],inactive
CCN(CC)CCCC(C)Nc1cc(OC)c(OC)c2ccccc12 (stereo not drawn),Activity,Monkey [3],inactive
CCC(CCCN)Nc1cc(OC)c(OC)c2ccccc12 (stereo not drawn),Activity,Monkey [4],Toxic
same,Activity,Monkey [5],inactive
same,Activity,Monkey [6],inactive
COc1cc(NCCCC(C)N)c2ccccc2c1OC (stereo not drawn),Activity,Monkey [1],inactive
